Results published in ChEMBL document CHEMBL1146065, “Structure-based optimization of azole antifungal agents by CoMFA, CoMSIA, and molecular docking” (2006).
≈ marks a conversion by molar mass, not a printed value.

Assays:
Format in all cases: functional
Candida parapsilosis = experiment: Antifungal activity against Candida parapsilosis; details: Lodderomyces parapsilosis
Candida tropicalis = experiment: Antifungal activity against Candida tropicalis
Fonsecaea pedrosoi = experiment: Antifungal activity against Fonsecaea pedrosoi
Trichophyton rubrum = experiment: Antifungal activity against Trichophyton rubrum
Cryptococcus neoformans = experiment: Antifungal activity against Cryptococcus neoformans
Candida albicans = experiment: Antifungal activity against Candida albicans
Aspergillus fumigatus = experiment: Antifungal activity against Aspergillus fumigatus
Sporothrix schenckii = experiment: Antifungal activity against Sporothrix schenckii

Row | Compound | MIC80 (Candida parapsilosis) | MIC80 (Candida tropicalis) | MIC80 (Fonsecaea pedrosoi) | MIC80 (Trichophyton rubrum) | MIC80 (Cryptococcus neoformans) | MIC80 (Candida albicans) | MIC80 (Aspergillus fumigatus) | MIC80 (Sporothrix schenckii)
1 | CN(Cc1ccc(-n2cnn(Cc3cc(F)ccc3Br)c2=O)cc1)CC(O)(Cn1cncn1)c1ccc(F)cc1F (stereo unspecified) | 0.008 µg/mL (≈ 0.0127 µM) | 0.25 µg/mL (≈ 0.398 µM) | 0.25 µg/mL (≈ 0.398 µM) | 2 µg/mL (≈ 3.18 µM) | 0.5 µg/mL (≈ 0.796 µM) | 0.002 µg/mL (≈ 0.00318 µM) | 32 µg/mL (≈ 50.9 µM) | 16 µg/mL (≈ 25.5 µM)
2 | CN(Cc1ccc(N)cc1)CC(O)(Cn1cncn1)c1ccc(F)cc1F (stereo unspecified) | 2 µg/mL (≈ 5.36 µM) | 0.5 µg/mL (≈ 1.34 µM) | 4 µg/mL (≈ 10.7 µM) | 16 µg/mL (≈ 42.8 µM) | 8 µg/mL (≈ 21.4 µM) | 0.0625 µg/mL (≈ 0.167 µM) | 64 µg/mL (≈ 171 µM) | 64 µg/mL (≈ 171 µM)
3 | CN(Cc1ccc(-n2cnn(Cc3ccc(C(C)(C)C)cc3)c2=O)cc1)CC(O)(Cn1cncn1)c1ccc(F)cc1F (stereo unspecified) | 4 µg/mL (≈ 6.81 µM) | 1 µg/mL (≈ 1.7 µM) | 0.25 µg/mL (≈ 0.425 µM) | 0.5 µg/mL (≈ 0.851 µM) | 2 µg/mL (≈ 3.4 µM) | 0.031 µg/mL (≈ 0.0528 µM) | 8 µg/mL (≈ 13.6 µM) | 32 µg/mL (≈ 54.5 µM)
4 | Cc1ccc(C(=O)Cn2ncn(-c3ccc(CN(C)CC(O)(Cn4cncn4)c4ccc(F)cc4F)cc3)c2=O)cc1 (stereo unspecified) | 0.008 µg/mL (≈ 0.0139 µM) | 0.0312 µg/mL (≈ 0.0545 µM) | 0.125 µg/mL (≈ 0.218 µM) | 1 µg/mL (≈ 1.74 µM) | 0.125 µg/mL (≈ 0.218 µM) | 0.002 µg/mL (≈ 0.00349 µM) | 16 µg/mL (≈ 27.9 µM) | 64 µg/mL (≈ 112 µM)
5 | CN(Cc1ccc(-n2cnn(CC(=O)c3ccc(F)cc3F)c2=O)cc1)CC(O)(Cn1cncn1)c1ccc(F)cc1F (stereo unspecified) | 0.016 µg/mL (≈ 0.0269 µM) | 0.0625 µg/mL (≈ 0.105 µM) | 2 µg/mL (≈ 3.36 µM) | 4 µg/mL (≈ 6.72 µM) | 8 µg/mL (≈ 13.4 µM) | 0.008 µg/mL (≈ 0.0134 µM) | 64 µg/mL (≈ 107 µM) | 64 µg/mL (≈ 107 µM)
6 | CN(Cc1ccc(-n2cnn(CC(=O)c3ccccc3)c2=O)cc1)CC(O)(Cn1cncn1)c1ccc(F)cc1F (stereo unspecified) | 0.008 µg/mL (≈ 0.0143 µM) | 0.0625 µg/mL (≈ 0.112 µM) | 1 µg/mL (≈ 1.79 µM) | 8 µg/mL (≈ 14.3 µM) | 8 µg/mL (≈ 14.3 µM) | 0.016 µg/mL (≈ 0.0286 µM) | 64 µg/mL (≈ 114 µM) | 64 µg/mL (≈ 114 µM)
7 | Cc1ccc(C(=O)Cn2ncn(-c3ccc(CN(C)CC(O)(Cn4cncn4)c4ccc(F)cc4F)cc3)c2=O)c(C)c1 (stereo unspecified) | 0.125 µg/mL (≈ 0.213 µM) | 0.0625 µg/mL (≈ 0.106 µM) | 0.0625 µg/mL (≈ 0.106 µM) | 0.5 µg/mL (≈ 0.851 µM) | 0.5 µg/mL (≈ 0.851 µM) | 0.002 µg/mL (≈ 0.0034 µM) | 8 µg/mL (≈ 13.6 µM) | 64 µg/mL (≈ 109 µM)
8 | CN(Cc1ccc(-n2cnn(Cc3ccccc3F)c2=O)cc1)CC(O)(Cn1cncn1)c1ccc(F)cc1F (stereo unspecified) | 2 µg/mL (≈ 3.64 µM) | 0.0625 µg/mL (≈ 0.114 µM) | 0.0625 µg/mL (≈ 0.114 µM) | 1 µg/mL (≈ 1.82 µM) | 1 µg/mL (≈ 1.82 µM) | 0.031 µg/mL (≈ 0.0564 µM) | 32 µg/mL (≈ 58.2 µM) | 64 µg/mL (≈ 116 µM)
9 | CN(Cc1ccc(-n2cnn(Cc3ccc(Br)cc3F)c2=O)cc1)CC(O)(Cn1cncn1)c1ccc(F)cc1F (stereo unspecified) | 0.008 µg/mL (≈ 0.0127 µM) | 0.0625 µg/mL (≈ 0.0995 µM) | 0.125 µg/mL (≈ 0.199 µM) | 0.5 µg/mL (≈ 0.796 µM) | 0.125 µg/mL (≈ 0.199 µM) | 0.002 µg/mL (≈ 0.00318 µM) | 4 µg/mL (≈ 6.36 µM) | 64 µg/mL (≈ 102 µM)
10 | CC(C)c1ccc(C(=O)Cn2ncn(-c3ccc(CN(C)CC(O)(Cn4cncn4)c4ccc(F)cc4F)cc3)c2=O)cc1 (stereo unspecified) | 0.06 µg/mL (≈ 0.0997 µM) | 0.125 µg/mL (≈ 0.208 µM) | 0.125 µg/mL (≈ 0.208 µM) | 1 µg/mL (≈ 1.66 µM) | 1 µg/mL (≈ 1.66 µM) | 0.004 µg/mL (≈ 0.00665 µM) | 32 µg/mL (≈ 53.2 µM) | 64 µg/mL (≈ 106 µM)
11 | CN(Cc1ccc(-n2cnn(CC(=O)c3ccc(Br)cc3)c2=O)cc1)CC(O)(Cn1cncn1)c1ccc(F)cc1F (stereo unspecified) | 1 µg/mL (≈ 1.57 µM) | 0.0625 µg/mL (≈ 0.0979 µM) | 0.0625 µg/mL (≈ 0.0979 µM) | 0.25 µg/mL (≈ 0.392 µM) | 0.25 µg/mL (≈ 0.392 µM) | 0.002 µg/mL (≈ 0.00313 µM) | 16 µg/mL (≈ 25.1 µM) | 64 µg/mL (≈ 100 µM)
12 | CN(Cc1ccc(C(F)(F)F)cc1)CC(O)(Cn1cncn1)c1ccc(F)cc1F (stereo unspecified) | 2 µg/mL (≈ 4.69 µM) | 1 µg/mL (≈ 2.35 µM) | 0.125 µg/mL (≈ 0.293 µM) | 0.5 µg/mL (≈ 1.17 µM) | 0.25 µg/mL (≈ 0.586 µM) | 0.031 µg/mL (≈ 0.0727 µM) | 8 µg/mL (≈ 18.8 µM) | 64 µg/mL (≈ 150 µM)

The remaining lines, values ahead:

Row | MIC80 (Candida parapsilosis) | MIC80 (Candida tropicalis) | MIC80 (Fonsecaea pedrosoi) | MIC80 (Trichophyton rubrum) | MIC80 (Cryptococcus neoformans) | MIC80 (Candida albicans) | MIC80 (Aspergillus fumigatus) | MIC80 (Sporothrix schenckii) | Compound
13 | 0.008 µg/mL (≈ 0.0133 µM) | 0.0625 µg/mL (≈ 0.104 µM) | 0.125 µg/mL (≈ 0.208 µM) | 0.5 µg/mL (≈ 0.834 µM) | 0.125 µg/mL (≈ 0.208 µM) | 0.002 µg/mL (≈ 0.00334 µM) | 16 µg/mL (≈ 26.7 µM) | 64 µg/mL (≈ 107 µM) | CN(Cc1ccc(-n2cnn(Cc3cccc(C(F)(F)F)c3)c2=O)cc1)CC(O)(Cn1cncn1)c1ccc(F)cc1F (stereo unspecified)
14 | 0.008 µg/mL (≈ 0.0131 µM) | 0.0625 µg/mL (≈ 0.102 µM) | 0.0625 µg/mL (≈ 0.102 µM) | 0.25 µg/mL (≈ 0.41 µM) | 0.008 µg/mL (≈ 0.0131 µM) | 0.002 µg/mL (≈ 0.00328 µM) | 8 µg/mL (≈ 13.1 µM) | 64 µg/mL (≈ 105 µM) | CN(Cc1ccc(-n2cnn(Cc3ccc(Br)cc3)c2=O)cc1)CC(O)(Cn1cncn1)c1ccc(F)cc1F (stereo unspecified)
15 | 4 µg/mL (≈ 7.28 µM) | 1 µg/mL (≈ 1.82 µM) | 1 µg/mL (≈ 1.82 µM) | 8 µg/mL (≈ 14.6 µM) | 4 µg/mL (≈ 7.28 µM) | 0.004 µg/mL (≈ 0.00728 µM) | 64 µg/mL (≈ 116 µM) | 32 µg/mL (≈ 58.2 µM) | CN(Cc1ccc(-n2cnn(Cc3ccc(F)cc3)c2=O)cc1)CC(O)(Cn1cncn1)c1ccc(F)cc1F (stereo unspecified)
16 | 0.008 µg/mL (≈ 0.0122 µM) | 0.0625 µg/mL (≈ 0.0951 µM) | 0.0625 µg/mL (≈ 0.0951 µM) | 0.25 µg/mL (≈ 0.38 µM) | 0.25 µg/mL (≈ 0.38 µM) | 0.002 µg/mL (≈ 0.00304 µM) | 2 µg/mL (≈ 3.04 µM) | 64 µg/mL (≈ 97.3 µM) | CN(Cc1ccc(-n2cnn(Cc3cccc(I)c3)c2=O)cc1)CC(O)(Cn1cncn1)c1ccc(F)cc1F (stereo unspecified)
17 | 0.06 µg/mL (≈ 0.106 µM) | 0.125 µg/mL (≈ 0.221 µM) | 0.5 µg/mL (≈ 0.883 µM) | 4 µg/mL (≈ 7.07 µM) | 1 µg/mL (≈ 1.77 µM) | 0.004 µg/mL (≈ 0.00707 µM) | 32 µg/mL (≈ 56.5 µM) | 32 µg/mL (≈ 56.5 µM) | CN(Cc1ccc(-n2cnn(Cc3ccccc3Cl)c2=O)cc1)CC(O)(Cn1cncn1)c1ccc(F)cc1F (stereo unspecified)
